Assay results taken from patent publication US20070048385A1, “Microcapsules by coacervation containing a pharmaceutical incorporated in the coating polymer” (priority 2003, published 2007).
Blank lines part the entries; values can stand above or below the compound they belong to.

Tests used:
[1] = Dissolution test at pH 6.8 according to USP 26; format: physicochemical
Experimental: A dissolution test is carried out on the microcapsules thus obtained comparing them with anhydrous theophylline in crystalline form.
The dissolution test was performed according to USP 26.
A dissolution test is carried out on the microcapsules obtained in Examples 5 and 6 according to the method previously described for Example 4
Dissolution test was performed according to USP 26
A dissolution test is carried out on the microcapsules thus obtained compared to fluoxetine raw material.

[2] = Dissolution test at pH 1.2 according to USP 26; format: physicochemical; settings: caffeine
Experimental: The microcapsules obtained, when analysed with an electronic microscope (FIG. 3), show a distribution of the particles of the active principle within the polymeric membrane in the form of solid particles that are prevalently disposed at the interface between the polymer and the core. […] Dissolution test was performed according to USP 26.

- Dissolution % at pH 6.8, 5 min ([1]; theophylline): 65%
- Dissolution % at pH 6.8, 10 min ([1]; theophylline, T2 second head): 100%
- Dissolution % at pH 6.8, 15 min ([1]; 15 min, theophylline): 100%
Structure (SMILES): Cn1c(=O)c2[nH]cnc2n(C)c1=O [Anhydrous Theophylline]

Structure (SMILES): Cn1c(=O)c2c(ncn2C)n(C)c1=O [Caffeine]
- Dissolution % at pH 1.2, 60 min [2]: 100%

- Dissolution % at pH 6.8, 5 min ([1]; fluoxetine): 55%
- Dissolution % at pH 6.8, 10 min ([1]; fluoxetine): 75%
- Dissolution % at pH 6.8, 20 min ([1]; 20 min, fluoxetine): 100%
Structure (SMILES): CNCCC(Oc1ccc(C(F)(F)F)cc1)c1ccccc1 (stereo not shown) [Fluoxetine]
